# “Also recorded” adds a separate entry of the source.
# What was measured:
# [1] = Cytotoxicity, MTT test, statements on all cell lines studied; assay type: cell-based; conditions: human, African green monkey, 72 h of exposure, summary over cell lines, read-out: cytotoxicity IC50, cells in general
# Description: Cell culture. A-172 (human glioblastoma cells), HepG2 (human hepatocellular carcinoma cells), M-HeLa (human cervical adenocarcinoma cells, M subclone), Vero (African green monkey kidney epithelial cells), and FetMSC (human embryonic mesenchymal stem cells) were purchased from the Russian Collection of Cell Cultures of Vertebrates (Institute of Cytology RAS, St. Petersburg, Russia). The U-251 MG cell line (human glioblastoma-astrocytoma) was purchased from the European Collection of Authenticated Cell Cultures (Salisbury, UK). All cells were grown at 37 °C in an atmosphere of 5% CO2. A-172 and Vero cells were cultured in DMEM medium (PanEco, Moscow, Russia). HepG2, HeLa, and U-251 MG cells were cultured in EMEM medium (PanEco). FetMSC cells were cultured in F12/DMEM medium (PanEco). All incubation media were supplemented with 10% fetal calf serum (BioWest, Nuaillé, France), 50 U/mL penicillin, and […] streptomycin (PanEco). Additionally, media for HeLa, HepG2, and U-251 MG cells were supplemented with 2 mM glutamine (PanEco) and 1% essential amino acids (PanEco), media for A-172 and Vero cells were supplemented with 4 mM glutamine, and the medium for FetMSC cells was supplemented with 3 mM glutamine. The medium for U-251 MG cells was additionally supplemented with 1 mM sodium pyruvate (PanEco).
# Cytotoxicity studies. The cytotoxicity of the compounds was assessed using the MTT test. Cells were seeded into 96-well plates at varying concentrations of 5 × 10^4 cells/mL (A-172, Vero and HeLa), 7 × 10^4 cells/mL (HepG2 and U-251 MG), and 10 × 10^4 cells/mL (FetMSC). The studied compounds were added to the incubation medium 24 h after seeding at concentrations ranging from 7.8 μM to 500 μM. All compounds were dissolved in DMSO and diluted with the incubation medium to their final concentrations just before use. The incubation medium in wells was aspirated and replaced with medium containing the studied compounds. The final concentration of DMSO in all samples was 0.1%. Control samples were treated with 0.1% DMSO. After 72 h of exposure, 3-(4,5-dimethylthiazol-2-yl)-2,5-diphenyl-2H-tetrazolium bromide (MTT) (Dia-M, Moscow, Russia) was added to the incubation medium at a concentration of 0.5 mg/mL. The resulting MTT-formazan crystals were dissolved in DMSO. The optical density was measured at 570 nm with a background wavelength of 620 nm using a Spark 10M plate reader. IC50 values were determined using a median effect analysis from the dose–effect relationships.
# BDF1 mice = experiment: Acute toxicity in vivo
# Description: Acute toxicity. Experiments involving animals were conducted at the Unique Scientific Unit “Nursery and Vivarium of the FRC PCP MC RAS” in accordance with the rules established by the Commission on Bioethics of the FRC PCP MC RAS (protocol No. 7/22 dated 20 June 2022) and the European Convention for the Protection of Vertebrate Animals for experimental and scientific purposes. Clinically healthy BDF1 hybrid males weighing 20–22 g were utilized. The mice were housed in a conventional vivarium with a 12 h light regime and provided with free access to water and food. Each experimental group consisted of six animals. Compound 4 was dissolved in DMSO and then diluted with 0.9% NaCl to reduce the DMSO concentration to 10%. The solution was administered intraperitoneally at single doses ranging from 200 mg/kg to 1000 mg/kg. The control group received 10% DMSO in 0.9% NaCl intraperitoneally. The animals were monitored daily for 14 days, with attention given to their overall condition, activity, and appetite. At the end of the experiment, all animals were euthanized by inhalation of ether, followed by a pathoanatomical autopsy.
smiles,measurement,setting,value
"O=C(CCC(=O)Nc1ccc(I)cc1)NO [Compound 4, N^1-hydroxy-N^4-(4-iodophenyl)butanediamide]",IC50 at 72 h,[1],> 100 µM
same,toxicity classification,"BDF1 mice; intraperitoneally, doses up to 1000 mg/kg, classification of [48]",slightly toxic
same,body weight change,"BDF1 mice; single i.p. dose 300 mg/kg or lower, 300 mg/kg",stable increase in body weight; also recorded: did not impact weight gain
same,body weight change,BDF1 mice; single i.p. dose 400 mg/kg,slower weight gain
same,body weight change,"BDF1 mice; single i.p. dose 1000 mg/kg, within 7 days, partial recovery on day 14",slight decrease in body weight
same,body weight change,"BDF1 mice; single i.p. doses 600 mg/kg and 800 mg/kg, entire observation period",No significant changes in body weight
